Patent publication US20260224714A1, “CYCLING LYSOSOMAL TARGETING ANTIBODY CONJUGATES” (Lycia Therapeutics, Inc., priority 2023, published 2026)

Experiments:
Format in all cases: cell-based
[1] = tested on: Alexa Fluor647 labelled human IgE; assay: Uptake assay: internalization of Alexa Fluor 647 labelled IgE in wild type HepG2 cells (Example 6); settings: equimolar conjugate and AF647 IgE, 2 hours, median cellular AF647 intensity by flow cytometry, normalized to unconjugated parent protein
Summary of the method: (§1)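 HepG2 cells (wild type or ASGPR1/2 KO) pre-blocked with Fc receptor blocker, then exposed 2 h to conjugate precomplexed equimolar with AF647-labelled human IgE (30 min, room temperature) at 300 nM to 1.23 nM final. Median cellular AF647 by flow cytometry, normalized to unconjugated parent protein.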

[2] = tested on: Alexa Fluor647 labelled human IgE; assay: Uptake assay: internalization of Alexa Fluor 647 labelled IgE in ASGPR1/2 KO HepG2 cells (Example 6); settings: equimolar conjugate and AF647 IgE, normalized to unconjugated parent protein
Summary of the method: as §1

[3] = tested on: LysoLight-labelled human IgE; assay: Lysosomal degradation of LysoLight-labelled IgE in HepG2 cells, live cell imaging (Example 7); settings: equimolar conjugate:LysoLight IgE, area under the curve of deep red fluorescence over three days, normalized to unconjugated parent protein
Summary of the method: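 Conjugate precomplexed 30 min at room temperature with equimolar LysoLight-labelled human IgE, added to Fc-receptor-blocked HepG2 cells at final 100–1.23 nM. Red fluorescence, released on lysosomal cathepsin cleavage, imaged hourly for 72 h starting 1 h post-addition; area under the fluorescence–time curve taken as total degradation.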

HepG2 cells = assay: Externalization of conjugates from a cell following internalization (cycling), high-throughput format (Example 11); settings: 50 nM conjugate 1 hour, stringent washes, Alexa Fluor 647-labelled a-human IgG 1 hour, FACS, normalized to unconjugated parent protein, average of two replicate wells
Summary of the method: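 25,000 HepG2 cells incubated with conjugate for 1 h at indicated concentrations, then chilled and washed (DPBS, pH 5.2 acetate, pH 2.5 EBSS) to strip surface conjugate. Recycled conjugate captured by 1 μg/ml AF647 anti-human IgG in 37 °C EMEM for 1 h; median AF647 by flow cytometry, mean of two wells.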

human IgE = assay: Degradation of initial and subsequent dose of target in HepG2 cells (Example 12, Table 30); settings: normalized to unconjugated; for Normalized Fluorescence Post Wash Median Green: after wash, probe-conjugated IgE added for 4 hours, subsequent dose of target; for Normalized Fluorescence Precomplex Median Deep Red: precomplexed equimolar conjugate:IgE (cathepsin-cleavable quenched fluorescent probe) added for 2 hours, initial dose of target
Summary of the method: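 HepG2 cells exposed 2 h to conjugate precomplexed (30 min, 37 °C, equimolar) with 647-quenched-probe human IgE, acid/ice washed, then given 488-probe IgE without conjugate for 4 h. Median 647 (initial) and 488 (recycled) fluorescence by flow cytometry, normalised to unconjugated parent; mean of two wells.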

recombinant IgE = assay: Degradation of super-stoichiometric levels of target in HepG2 cells (Example 13, Table 31); settings: 1 nM conjugate and 25 nM IgE for three days, (A-B)/C IgE depleted relative to conjugate, average of two replicate wells
Summary of the method: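 HepG2 cells in EMEM/10% FBS were incubated with 1 nM conjugate plus 25 nM recombinant IgE for 72 h. IgE in medium at start and end quantified by MSD/ELISA-type assay; value is molar equivalents IgE depleted per conjugate, (initial − day-3 IgE)/conjugate concentration, mean of two wells.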

| SMILES | Normalized Fluorescence 3.7 nM WT [1] | Normalized Fluorescence 100 nM WT [1] | Normalized Fluorescence 100 nM ASGPR KO [2] | Normalized Fluorescence 3.7 nM [3] | Normalized Fluorescence 100 nM [3] | Normalized Fluorescence (HepG2 cells) | Normalized Fluorescence Post Wash Median Green (human IgE) | Normalized Fluorescence Precomplex Median Deep Red (human IgE) | Average Degradation (Molar equivalents) (recombinant IgE) |
| --- | --- | --- | --- | --- | --- | --- | --- | --- | --- |
| CC(=O)N[C@@H]1[C@@H](O)[C@@H](O)[C@@H](CO)O[C@@H]1CCCOCCOCCNC(=O)NCCOCCOCCOCCOCCOCCNC(=O)c1ccc(N2C(=O)C=CC2=O)cc1 [Compound 2319-C, N-(29-((2R,3R,4R,5R,6R)-3-acetamido-4,5-dihydroxy-6-(hydroxymethyl)tetrahydro-2H-pyran-2-yl)-19-oxo-3,6,9,12,15,23,26-heptaoxa-18,20-diazanonacosyl)-4-(2,5-dioxo-2,5-dihydro-1H-pyrrol-1-yl)benzamide] | 2.3 | 16.0 | 1.4 | 1.1 | 1.0 | 5.0 | 1.1 | 1.2 | 2.1 Molar equivalents |
| CC(=O)N[C@@H]1[C@@H](O)[C@@H](O)[C@@H](CO)O[C@@H]1CCCOCCOCCNC(=O)NCCCC(C)(CCCNC(=O)NCCOCCOCCC[C@H]1O[C@H](CO)[C@H](O)[C@H](O)[C@H]1NC(C)=O)NC(=O)NCCOCCOCCOCCNC(=O)CBr (stereo partly drawn) [Compound 2320] | 37.7 | 224.4 | 1.1 | 6.4 | 2.7 | 24.1 | 2.7 | 3.2 | 0.5 Molar equivalents |
| CC(=O)N[C@@H]1[C@@H](O)[C@@H](O)[C@@H](CO)O[C@@H]1CCCOCCOCCNC(=O)NCCCC(CCCNC(=O)NCCOCCOCCC[C@H]1O[C@H](CO)[C@H](O)[C@H](O)[C@H]1NC(C)=O)(CCCNC(=O)NCCOCCOCCC[C@H]1O[C@H](CO)[C@H](O)[C@H](O)[C@H]1NC(C)=O)NC(=O)NCCOCCOCCOCCNC(=O)CBr [Compound 2321] | 80.7 | 320.7 | 1.1 | 13.2 | 4.1 | 49.3 | 3.7 | 4.0 | 2.4 Molar equivalents |
| CC(=O)N[C@@H]1[C@@H](O)[C@@H](O)[C@@H](CO)O[C@@H]1CCCOCCOCCNC(=O)NCCCC(CCCNC(=O)NCCOCCOCCC[C@H]1O[C@H](CO)[C@H](O)[C@H](O)[C@H]1NC(C)=O)(CCCNC(=O)NCCOCCOCCC[C@H]1O[C@H](CO)[C@H](O)[C@H](O)[C@H]1NC(C)=O)NC(=O)NCCOCCOCCOCCN(C)C(=O)c1ccc(N2C(=O)C=CC2=O)cc1 [Compound 2322] | 68.5 | 214.4 | 1.2 | 7.8 | 3.5 | 46.8 | 3.3 | 3.5 | 5.2 Molar equivalents |
| O=C(CCOCCOCCOCCNS(=O)(=O)c1ccc(N2C(=O)C=CC2=O)cc1)NC(CCCNC(=O)NCCOCCOCCOC[C@H]1CN([C@H]2CO[C@H](CO)[C@H](O)[C@@H]2O)C(=O)O1)(CCCNC(=O)NCCOCCOCCOC[C@H]1CN([C@H]2CO[C@H](CO)[C@H](O)[C@@H]2O)C(=O)O1)CCCNC(=O)NCCOCCOCCOC[C@H]1CN([C@H]2CO[C@H](CO)[C@H](O)[C@@H]2O)C(=O)O1 [Compound 2324] | 39.2 | 207.4 | 1.2 | 5.8 | 2.6 | 32.2 | 2.9 | 3.2 | 5.2 Molar equivalents |
| CC(=O)N[C@@H]1[C@@H](O)[C@@H](O)[C@@H](CO)O[C@@H]1c1cc(COCCOCCNC(=O)NCCCC(CCCNC(=O)NCCOCCOCc2cc([C@H]3O[C@H](CO)[C@H](O)[C@H](O)[C@H]3NC(C)=O)on2)(CCCNC(=O)NCCOCCOCc2cc([C@H]3O[C@H](CO)[C@H](O)[C@H](O)[C@H]3NC(C)=O)on2)NC(=O)CCOCCOCCOCCNS(=O)(=O)c2ccc(N3C(=O)C=CC3=O)cc2)no1 [Compound 2325] | 87.8 | 270.0 | 1.2 | 15.8 | 3.5 | 54.2 | 3.6 | 3.9 | 6.9 Molar equivalents |
| CCC[C@H]1O[C@H](COC)[C@H](O)[C@H](O)[C@H]1Nc1nccc(OCCOCCOCCNC(=O)NCCCC(CCCNC(=O)NCCOCCOCCOc2ccnc(N[C@@H]3[C@@H](O)[C@@H](O)[C@@H](COC)O[C@@H]3CCC)n2)(CCCNC(=O)NCCOCCOCCOc2ccnc(N[C@@H]3[C@@H](O)[C@@H](O)[C@@H](COC)O[C@@H]3CCC)n2)NC(=O)CCOCCOCCOCCNS(=O)(=O)c2ccc(N3C(=O)C=CC3=O)cc2)n1 [Compound 2326] | 89.7 | 287.9 | 1.1 | 17.2 | 3.7 | 57.7 | 4.1 | 4.1 | 9.0 Molar equivalents |
| O=C(CCOCCOCCOCCNS(=O)(=O)c1ccc(N2C(=O)C=CC2=O)cc1)NC(CCCNC(=O)NCCOCCOCCOCC(F)(F)c1cncc(N[C@H]2CO[C@H](CO)[C@H](O)[C@@H]2O)n1)(CCCNC(=O)NCCOCCOCCOCC(F)(F)c1cncc(N[C@H]2CO[C@H](CO)[C@H](O)[C@@H]2O)n1)CCCNC(=O)NCCOCCOCCOCC(F)(F)c1cncc(N[C@H]2CO[C@H](CO)[C@H](O)[C@@H]2O)n1 [Compound 2327] | 133.1 | 268.8 | 1.0 | 24.0 | 2.7 | 71.2 | 4.6 | 3.7 | 9.2 Molar equivalents |
| O=C(CCOCCOCCOCCNS(=O)(=O)c1ccc(N2C(=O)C=CC2=O)cc1)NC(CCCNC(=O)NCCOCCOCCOCc1cn([C@H]2[C@H]3OC[C@](CO)(O3)[C@H](O)[C@@H]2O)nn1)(CCCNC(=O)NCCOCCOCCOCc1cn([C@H]2[C@H]3OC[C@](CO)(O3)[C@H](O)[C@@H]2O)nn1)CCCNC(=O)NCCOCCOCCOCc1cn([C@H]2[C@H]3OC[C@](CO)(O3)[C@H](O)[C@@H]2O)nn1 [Compound 2328] | 29.7 | 146.5 | 1.1 | 4.4 | 2.5 | 15.1 | 1.8 | 2.4 | −0.3 Molar equivalents |
